Tested on: subjects with dIBS
Test: Study of three rifaximin doses in subjects with dIBS: adequate relief of IBS symptoms and bloating
Assay type: in vivo, human
Conditions: for Treatment effect (Bloating) / Treatment effect (IBS Sx): matches RFX 550 2 w minus PBO success rate; for Adequate Relief of Bloating: Failure / Adequate Relief of Bloating: Success / Adequate Relief of IBS Symptoms: Failure / Adequate Relief of IBS Symptoms: Success: end of treatment phase
Description: This example relates to a study of three rifaximin doses in subjects with dIBS. Subjects were randomized to receive daily BID doses of rifaximin 275 mg, 550 mg, or 1100 mg for 14 days. A fifth group of subjects received rifaximin 550 mg BID for a period of 28 days. Subjects were questioned on the relief of overall IBS symptoms and bloating. […] The analyses defined success as a “yes” response to questions regarding adequate relief of SGA or IBS-B in at least 2 out of the final 3 weeks of the double-blind treatment period.
Baseline severity was determined using 7-point Lickert scales during screening for Abdominal Pain/Discomfort and Bloating, and the number, type (normal, hard, loose) and urgency of bowel movements.
Duration of effect was assessed in a 12 week follow-up period. Subjects that responded in the 4 week double-blind treatment period were followed for an additional 3 months. Fifty-three (53) subjects from the 550 mg 2 w and 59 subjects from the placebo-treated groups participated in this study phase.
Subjects recorded the following information on dIBS symptoms daily throughout the duration of the study: • Number of normal stools/day; • Number of hard and lumpy stools/day; • Number of loose or watery stools/day; • Number of loose or watery stools/day with the symptom of urgency; • How bothersome is abdominal pain and discomfort? [7-point response scale: 0 (not at all) to 6 (a very great deal)]; • How bothersome is bloating? [(7-point response scale: 0 (not at all) to 6 (a very great deal)].
Weekly summary variables were computed by averaging the recorded values over all pre-treatment days or over the seven days preceding the time point of interest for post-treatment assessments. For example, baseline included Days −10 to 0, Week 1 included Days 1 to 7, Week 2 included Days 8 to 14, and so forth through Week 16. Changes from baseline variables were computed for each weekly summary score.

[1] = 550 mg BID for 2 weeks, success = yes in at least 2 of final 3 weeks
[2] = GI Cleanser Prior to Rifaximin Administration: N
[3] = GI Cleanser Prior to Rifaximin Administration: Y
[4] = RFX 275 2 w (275 mg BID 14 days), Had a Screening Colonoscopy: No
[5] = RFX 275 2 w (275 mg BID 14 days), Had a Screening Colonoscopy: Yes
[6] = RFX 275 2 w (275 mg BID 14 days), Screening Colonoscopy <=26 Days
[7] = RFX 275 2 w (275 mg BID 14 days), Screening Colonoscopy >26 Days
[8] = RFX 275 2 w (275 mg BID 14 days), had screening colonoscopy, Average Abdominal Pain Discomfort Score at Baseline <=4
[9] = RFX 275 2 w (275 mg BID 14 days), had screening colonoscopy, Average Abdominal Pain Discomfort Score at Baseline >4
[10] = RFX 275 2 w (275 mg BID 14 days), had screening colonoscopy, Average Bloating Discomfort Score at Baseline <=4
[11] = RFX 275 2 w (275 mg BID 14 days), had screening colonoscopy, Average Bloating Discomfort Score at Baseline >4
[12] = RFX 550 2 w (550 mg BID 14 days), Had a Screening Colonoscopy: No
[13] = RFX 550 2 w (550 mg BID 14 days), Had a Screening Colonoscopy: Yes
[14] = RFX 550 2 w (550 mg BID 14 days), Screening Colonoscopy <=26 Days
[15] = RFX 550 2 w (550 mg BID 14 days), Screening Colonoscopy >26 Days
[16] = RFX 550 2 w (550 mg BID 14 days), had screening colonoscopy, Average Abdominal Pain Discomfort Score at Baseline <=4
[17] = RFX 550 2 w (550 mg BID 14 days), had screening colonoscopy, Average Abdominal Pain Discomfort Score at Baseline >4
[18] = RFX 550 2 w (550 mg BID 14 days), had screening colonoscopy, Average Bloating Discomfort Score at Baseline <=4

SMILES: COC1/C=C/OC2(C)Oc3c(C)c(O)c4c(O)c(c5c(nc6cc(C)ccn65)c4c3C2=O)NC(=O)/C(C)=C\C=C\C(C)C(O)C(C)C(O)C(C)C(OC(C)=O)C1C [RFX, (2S,16Z,18E,20S,21S,22R,23R,24R,25S,26S,27S,28E)-5,6,21,23,25 Pentahydroxy-27-methoxy-2,4,11,16,20,22,24,26-octamethyl-2,7-(epoxypentadeca-(1,11,13)trienimino)benzofuro(4,5-e)pyrido(1,2,-a)benzimidazole-1,15(2H)-dione,25-acetate]
- Duration of effect (maintaining symptom relief) versus placebo (550 mg BID 2 w responders, 12 week follow-up period): better chance of maintaining symptom relief
- Adequate relief of IBS related symptoms (SGA) compared to placebo [1]: statistically significant relief
- Adequate relief of IBS-related bloating (IBS-B) compared to placebo [1]: statistically significant relief
- Treatment effect (Bloating) [2]: −0.9%
- Treatment effect (IBS Sx) [2]: 4.7%
- Treatment effect (Bloating) [3]: 13.8%
- Treatment effect (IBS Sx) [3]: 11.6%
- Adequate Relief of Bloating: Failure [4]: 36 (67.9%) n (%)
- Adequate Relief of Bloating: Success [4]: 17 (32.1%) n (%)
- Adequate Relief of IBS Symptoms: Failure [4]: 32 (60.4%) n (%)
- Adequate Relief of IBS Symptoms: Success [4]: 21 (39.6%) n (%)
- Adequate Relief of Bloating: Failure [5]: 24 (57.1%) n (%)
- Adequate Relief of Bloating: Success [5]: 18 (42.9%) n (%)
- Adequate Relief of IBS Symptoms: Failure [5]: 23 (54.8%) n (%)
- Adequate Relief of IBS Symptoms: Success [5]: 19 (45.2%) n (%)
- Adequate Relief of Bloating: Failure [6]: 10 (55.6%) n (%)
- Adequate Relief of Bloating: Success [6]: 8 (44.4%) n (%)
- Adequate Relief of IBS Symptoms: Failure [6]: 11 (61.1%) n (%)
- Adequate Relief of IBS Symptoms: Success [6]: 7 (38.9%) n (%)
- Adequate Relief of Bloating: Failure [7]: 14 (58.3%) n (%)
- Adequate Relief of Bloating: Success [7]: 10 (41.7%) n (%)
- Adequate Relief of IBS Symptoms: Failure [7]: 12 (50.0%) n (%)
- Adequate Relief of IBS Symptoms: Success [7]: 12 (50.0%) n (%)
- Adequate Relief of Bloating: Failure [8]: 22 (59.5%) n (%)
- Adequate Relief of Bloating: Success [8]: 15 (40.5%) n (%)
- Adequate Relief of IBS Symptoms: Failure [8]: 21 (56.8%) n (%)
- Adequate Relief of IBS Symptoms: Success [8]: 16 (43.2%) n (%)
- Adequate Relief of Bloating: Failure [9]: 2 (40.0%) n (%)
- Adequate Relief of Bloating: Success [9]: 3 (60.0%) n (%)
- Adequate Relief of IBS Symptoms: Failure [9]: 2 (40.0%) n (%)
- Adequate Relief of IBS Symptoms: Success [9]: 3 (60.0%) n (%)
- Adequate Relief of Bloating: Failure [10]: 22 (59.5%) n (%)
- Adequate Relief of Bloating: Success [10]: 15 (40.5%) n (%)
- Adequate Relief of IBS Symptoms: Failure [10]: 21 (56.8%) n (%)
- Adequate Relief of IBS Symptoms: Success [10]: 16 (43.2%) n (%)
- Adequate Relief of Bloating: Failure [11]: 2 (40.0%) n (%)
- Adequate Relief of Bloating: Success [11]: 3 (60.0%) n (%)
- Adequate Relief of IBS Symptoms: Failure [11]: 2 (40.0%) n (%)
- Adequate Relief of IBS Symptoms: Success [11]: 3 (60.0%) n (%)
- Adequate Relief of Bloating: Failure [12]: 59 (62.1%) n (%)
- Adequate Relief of Bloating: Success [12]: 36 (37.9%) n (%)
- Adequate Relief of IBS Symptoms: Failure [12]: 49 (51.6%) n (%)
- Adequate Relief of IBS Symptoms: Success [12]: 46 (48.4%) n (%)
- Adequate Relief of Bloating: Failure [13]: 44 (45.8%) n (%)
- Adequate Relief of Bloating: Success [13]: 52 (54.2%) n (%)
- Adequate Relief of IBS Symptoms: Failure [13]: 42 (43.8%) n (%)
- Adequate Relief of IBS Symptoms: Success [13]: 54 (56.3%) n (%)
- Adequate Relief of Bloating: Failure [14]: 18 (40.9%) n (%)
- Adequate Relief of Bloating: Success [14]: 26 (59.1%) n (%)
- Adequate Relief of IBS Symptoms: Failure [14]: 20 (45.5%) n (%)
- Adequate Relief of IBS Symptoms: Success [14]: 24 (54.5%) n (%)
- Adequate Relief of Bloating: Failure [15]: 26 (50.0%) n (%)
- Adequate Relief of Bloating: Success [15]: 26 (50.0%) n (%)
- Adequate Relief of IBS Symptoms: Failure [15]: 22 (42.3%) n (%)
- Adequate Relief of IBS Symptoms: Success [15]: 30 (57.7%) n (%)
- Adequate Relief of Bloating: Failure [16]: 38 (45.8%) n (%)
- Adequate Relief of Bloating: Success [16]: 45 (54.2%) n (%)
- Adequate Relief of IBS Symptoms: Failure [16]: 37 (44.6%) n (%)
- Adequate Relief of IBS Symptoms: Success [16]: 46 (55.4%) n (%)
- Adequate Relief of Bloating: Failure [17]: 6 (46.2%) n (%)
- Adequate Relief of Bloating: Success [17]: 7 (53.8%) n (%)
- Adequate Relief of IBS Symptoms: Failure [17]: 5 (38.5%) n (%)
- Adequate Relief of IBS Symptoms: Success [17]: 8 (61.5%) n (%)
- Adequate Relief of Bloating: Failure [18]: 36 (45.0%) n (%)
- Adequate Relief of Bloating: Success [18]: 44 (55.0%) n (%)
- Adequate Relief of IBS Symptoms: Failure [18]: 34 (42.5%) n (%)
- Adequate Relief of IBS Symptoms: Success [18]: 46 (57.5%) n (%)
- Adequate Relief of Bloating: Failure (RFX 550 2 w (550 mg BID 14 days), had screening colonoscopy, Average Bloating Discomfort Score at Baseline >4): 8 (50.0%) n (%)

— US20130164384A1, “METHODS OF TREATING BOWEL DISEASES BY ADMINISTERING A BOWEL CLEANSER AND AN ANTIBIOTIC” (Salix Pharmaceuticals, Ltd., priority 2008, published 2013)
